Reference: ChEMBL document CHEMBL1201862, “PubChem BioAssay data set” (2004)
Each block holds one compound with its values, some of them ahead of it. Calls of active or inactive are those of the source.

Key:
Format in all cases: functional
[1] = (§1) Counterscreen for antagonists of the orexin 1 receptor (OX1R; HCRTR1): Fluorescence-based cell-based high throughput dose response assay to identify antagonists of the parental CHO cell line. [Related pubchem assays (depositor defined):AID434989, AID435008, AID463079, AID485270, AID492963, AID492964, AID492965, AID493232, AID504699, AID504701]
CHO-K1 = experiment: as §1, with “Homogeneous time resolved fluorescence (HTRF)-based” for “Fluorescence-based”, “cell-based” for “cell-based high throughput”, “CHO-K1” for “CHO”; conditions: Cricetulus griseus;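 also: potency for inhibition of ATP-stimulated IP1 production as antagonists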
Orexin receptor type 2 [2] = target: T1, Orexin receptor type 2 (Homo sapiens, UniProt O43614); experiment: Counterscreen assay for antagonists of the orexin 1 receptor (OX1R; HCRTR1): Fluorescence-based cell-based dose response assay for antagonists of the orexin 2 receptor (OX2R; HCRTR2), run by assay provider.
T1 sequence (O43614 whole entry): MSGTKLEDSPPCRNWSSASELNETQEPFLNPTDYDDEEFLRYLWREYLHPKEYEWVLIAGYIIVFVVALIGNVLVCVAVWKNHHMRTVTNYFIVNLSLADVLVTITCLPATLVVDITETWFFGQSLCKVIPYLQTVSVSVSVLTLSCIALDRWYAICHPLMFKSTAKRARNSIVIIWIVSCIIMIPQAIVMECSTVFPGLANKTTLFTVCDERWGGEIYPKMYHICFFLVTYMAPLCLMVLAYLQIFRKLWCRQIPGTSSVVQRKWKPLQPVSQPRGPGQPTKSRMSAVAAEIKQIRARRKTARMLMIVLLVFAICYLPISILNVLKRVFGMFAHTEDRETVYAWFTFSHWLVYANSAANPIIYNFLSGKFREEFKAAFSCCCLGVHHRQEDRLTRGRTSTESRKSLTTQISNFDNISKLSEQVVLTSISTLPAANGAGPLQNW

[3] = target: T2, Orexin/Hypocretin receptor type 1 (Homo sapiens, UniProt O43613); experiment: (§2) Fluorescence-based cell-based high throughput dose response assay for antagonists of the orexin 1 receptor (OX1R; HCRTR1). [Related pubchem assays (depositor defined):AID434989, AID435008, AID463079, AID485270, AID492963, AID492964, AID492965, AID493232, AID504717, AID504718]
T2 sequence (O43613 whole entry): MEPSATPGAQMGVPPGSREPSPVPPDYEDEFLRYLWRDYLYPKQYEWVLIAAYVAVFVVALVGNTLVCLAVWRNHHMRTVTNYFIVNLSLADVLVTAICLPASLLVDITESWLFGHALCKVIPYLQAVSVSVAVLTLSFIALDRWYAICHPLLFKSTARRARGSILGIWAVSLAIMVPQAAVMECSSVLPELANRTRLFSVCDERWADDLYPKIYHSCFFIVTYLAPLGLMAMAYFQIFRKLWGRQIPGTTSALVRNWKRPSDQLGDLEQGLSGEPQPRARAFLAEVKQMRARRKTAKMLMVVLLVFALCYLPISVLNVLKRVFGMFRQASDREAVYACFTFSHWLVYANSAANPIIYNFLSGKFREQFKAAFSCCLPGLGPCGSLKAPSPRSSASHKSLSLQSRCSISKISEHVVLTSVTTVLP

Orexin receptor type 2 [4] = target: T1, Orexin receptor type 2; experiment: Counterscreen assay for antagonists of the orexin 1 receptor (OX1R; HCRTR1): Homogeneous Time Resolved Fluorescence (HTRF)-based cell-based dose response assay for antagonists of the orexin 2 receptor (OX2R; HCRTR2), run by assay provider.
[5] = target: T2, Orexin/Hypocretin receptor type 1; experiment: as §2, with “Homogeneous Time Resolved Fluorescence (HTRF)-based” for “Fluorescence-based”
[6] = target: Mitochondrial peptide methionine sulfoxide reductase (Bos taurus, UniProt P54149); experiment: Absorbance-based biochemical high throughput dose response assay for activators of Methionine sulfoxide reductase A (MsrA).
Mitochondrial peptide methionine sulfoxide reductase, sequence (P54149 whole entry): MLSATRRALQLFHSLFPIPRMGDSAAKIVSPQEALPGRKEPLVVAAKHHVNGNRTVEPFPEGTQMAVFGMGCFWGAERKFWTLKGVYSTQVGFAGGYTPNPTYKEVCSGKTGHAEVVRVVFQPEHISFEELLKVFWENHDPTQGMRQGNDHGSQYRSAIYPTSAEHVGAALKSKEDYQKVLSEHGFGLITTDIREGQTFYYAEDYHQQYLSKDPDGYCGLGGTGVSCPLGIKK

[7] = target: DNA (cytosine-5)-methyltransferase 1 (Homo sapiens, UniProt P26358); experiment: DNMT1 methyltransferase inhibitors, confirmation, biochemical, fluorescent molecular beacon (AID 602386)
DNA (cytosine-5)-methyltransferase 1, sequence (P26358 whole entry): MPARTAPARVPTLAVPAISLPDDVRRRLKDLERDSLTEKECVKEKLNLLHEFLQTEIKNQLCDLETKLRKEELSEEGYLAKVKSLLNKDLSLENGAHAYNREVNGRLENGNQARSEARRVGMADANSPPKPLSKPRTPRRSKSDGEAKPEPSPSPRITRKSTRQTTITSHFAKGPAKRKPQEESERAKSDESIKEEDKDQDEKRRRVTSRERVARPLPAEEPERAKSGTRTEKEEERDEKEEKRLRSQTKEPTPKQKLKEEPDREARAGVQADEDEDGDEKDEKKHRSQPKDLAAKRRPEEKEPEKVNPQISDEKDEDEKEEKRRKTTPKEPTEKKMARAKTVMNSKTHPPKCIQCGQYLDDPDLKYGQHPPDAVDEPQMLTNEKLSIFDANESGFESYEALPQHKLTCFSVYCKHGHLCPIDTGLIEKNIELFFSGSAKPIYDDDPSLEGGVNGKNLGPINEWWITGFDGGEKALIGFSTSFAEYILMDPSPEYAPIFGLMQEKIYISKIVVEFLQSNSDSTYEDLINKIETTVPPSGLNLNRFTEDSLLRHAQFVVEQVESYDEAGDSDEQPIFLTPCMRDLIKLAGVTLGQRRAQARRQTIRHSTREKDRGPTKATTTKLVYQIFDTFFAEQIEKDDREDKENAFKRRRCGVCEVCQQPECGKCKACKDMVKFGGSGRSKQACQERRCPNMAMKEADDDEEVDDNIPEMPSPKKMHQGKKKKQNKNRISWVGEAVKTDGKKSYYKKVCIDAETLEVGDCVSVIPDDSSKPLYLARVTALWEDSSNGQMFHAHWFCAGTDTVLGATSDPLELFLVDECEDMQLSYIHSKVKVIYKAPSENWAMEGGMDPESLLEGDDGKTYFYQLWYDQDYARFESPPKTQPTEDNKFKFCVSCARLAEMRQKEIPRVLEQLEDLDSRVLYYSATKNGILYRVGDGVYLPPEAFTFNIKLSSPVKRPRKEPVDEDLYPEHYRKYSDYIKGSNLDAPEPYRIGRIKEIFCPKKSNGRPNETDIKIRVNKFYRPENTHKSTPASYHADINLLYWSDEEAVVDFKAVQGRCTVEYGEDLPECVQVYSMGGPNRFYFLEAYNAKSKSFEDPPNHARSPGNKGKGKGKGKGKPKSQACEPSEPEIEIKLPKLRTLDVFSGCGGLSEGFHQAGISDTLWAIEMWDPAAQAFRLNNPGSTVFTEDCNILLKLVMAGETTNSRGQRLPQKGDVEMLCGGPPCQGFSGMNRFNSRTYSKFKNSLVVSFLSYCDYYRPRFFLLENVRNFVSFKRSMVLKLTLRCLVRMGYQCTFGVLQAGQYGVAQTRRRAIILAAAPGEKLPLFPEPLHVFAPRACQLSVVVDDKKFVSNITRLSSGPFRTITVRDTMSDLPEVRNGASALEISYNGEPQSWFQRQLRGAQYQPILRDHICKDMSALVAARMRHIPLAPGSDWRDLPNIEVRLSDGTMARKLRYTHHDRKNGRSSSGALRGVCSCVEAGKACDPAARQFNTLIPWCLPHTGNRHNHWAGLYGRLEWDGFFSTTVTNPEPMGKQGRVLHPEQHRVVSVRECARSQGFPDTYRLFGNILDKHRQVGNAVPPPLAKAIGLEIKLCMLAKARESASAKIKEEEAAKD

[8] = target: T3, Sentrin-specific protease 7 (Homo sapiens, UniProt Q9BQF6); experiment: SENP7 protease inhibitors, SAR follow-up, biochemical, luminescence, set 2 (AID 588600)
T3 sequence (Q9BQF6 whole entry): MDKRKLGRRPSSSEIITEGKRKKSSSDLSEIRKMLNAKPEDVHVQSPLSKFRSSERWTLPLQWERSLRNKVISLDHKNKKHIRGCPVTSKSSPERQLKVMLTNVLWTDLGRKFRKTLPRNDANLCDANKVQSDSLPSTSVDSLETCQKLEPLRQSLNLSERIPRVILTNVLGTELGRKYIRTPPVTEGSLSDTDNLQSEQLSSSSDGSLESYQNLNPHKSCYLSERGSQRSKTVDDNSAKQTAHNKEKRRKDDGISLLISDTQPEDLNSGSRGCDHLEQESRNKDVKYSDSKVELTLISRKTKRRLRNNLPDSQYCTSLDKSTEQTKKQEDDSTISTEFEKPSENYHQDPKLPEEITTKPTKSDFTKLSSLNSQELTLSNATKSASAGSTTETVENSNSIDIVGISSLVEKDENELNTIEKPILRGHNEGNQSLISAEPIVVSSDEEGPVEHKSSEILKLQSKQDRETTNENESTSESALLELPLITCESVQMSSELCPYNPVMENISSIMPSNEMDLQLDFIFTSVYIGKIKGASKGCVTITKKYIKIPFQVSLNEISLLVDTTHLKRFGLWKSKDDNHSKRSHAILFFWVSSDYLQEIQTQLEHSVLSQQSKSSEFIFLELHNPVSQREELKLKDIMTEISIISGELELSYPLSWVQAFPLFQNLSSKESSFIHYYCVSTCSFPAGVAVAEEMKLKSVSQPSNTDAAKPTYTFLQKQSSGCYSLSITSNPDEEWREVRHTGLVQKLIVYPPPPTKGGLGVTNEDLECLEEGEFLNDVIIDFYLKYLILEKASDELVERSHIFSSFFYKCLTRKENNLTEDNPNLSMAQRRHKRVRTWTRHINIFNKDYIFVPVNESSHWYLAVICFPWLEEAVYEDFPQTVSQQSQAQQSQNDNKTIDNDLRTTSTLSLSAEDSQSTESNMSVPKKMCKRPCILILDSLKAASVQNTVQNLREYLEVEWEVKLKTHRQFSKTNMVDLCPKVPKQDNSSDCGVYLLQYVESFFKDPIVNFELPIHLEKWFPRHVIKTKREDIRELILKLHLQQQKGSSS

[9] = target: T4, Sentrin-specific protease 6 (Homo sapiens, UniProt Q9GZR1); experiment: SENP6 protease inhibitors, SAR follow-up, biochemical, luminescence, set 2 (AID 588598)
T4 sequence (Q9GZR1 whole entry): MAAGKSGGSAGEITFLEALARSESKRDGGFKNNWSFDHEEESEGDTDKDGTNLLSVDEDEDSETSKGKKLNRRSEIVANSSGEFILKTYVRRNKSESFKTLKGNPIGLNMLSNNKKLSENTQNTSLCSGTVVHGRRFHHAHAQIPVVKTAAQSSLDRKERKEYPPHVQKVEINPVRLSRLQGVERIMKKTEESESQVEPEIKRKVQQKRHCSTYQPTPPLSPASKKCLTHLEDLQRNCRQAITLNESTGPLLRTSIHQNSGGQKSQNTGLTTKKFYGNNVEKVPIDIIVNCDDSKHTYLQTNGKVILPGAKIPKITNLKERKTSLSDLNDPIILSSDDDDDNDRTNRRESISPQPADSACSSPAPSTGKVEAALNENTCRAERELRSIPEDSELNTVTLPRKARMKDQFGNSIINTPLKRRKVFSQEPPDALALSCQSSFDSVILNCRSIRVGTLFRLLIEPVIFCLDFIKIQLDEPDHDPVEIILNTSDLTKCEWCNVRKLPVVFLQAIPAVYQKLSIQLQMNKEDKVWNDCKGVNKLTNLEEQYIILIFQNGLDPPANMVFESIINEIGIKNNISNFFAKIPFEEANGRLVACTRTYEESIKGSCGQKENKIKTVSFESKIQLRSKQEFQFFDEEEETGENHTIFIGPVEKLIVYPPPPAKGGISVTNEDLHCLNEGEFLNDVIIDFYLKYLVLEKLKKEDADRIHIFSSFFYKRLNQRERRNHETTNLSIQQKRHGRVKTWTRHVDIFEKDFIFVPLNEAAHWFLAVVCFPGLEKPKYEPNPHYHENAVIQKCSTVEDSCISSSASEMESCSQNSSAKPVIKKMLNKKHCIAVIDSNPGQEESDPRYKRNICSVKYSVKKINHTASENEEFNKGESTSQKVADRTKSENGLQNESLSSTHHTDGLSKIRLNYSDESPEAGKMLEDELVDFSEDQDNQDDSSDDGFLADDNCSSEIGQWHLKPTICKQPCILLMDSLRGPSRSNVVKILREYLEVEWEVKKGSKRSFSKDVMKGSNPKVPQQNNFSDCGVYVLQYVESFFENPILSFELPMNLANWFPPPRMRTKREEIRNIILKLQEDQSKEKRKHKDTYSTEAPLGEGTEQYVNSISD

Caspase-3 = target: T5, Caspase-3 (Homo sapiens, UniProt P42574); experiment: caspase-3 inhibitors as off-family protease, SAR follow-up, selectivity assay for SENP protease inhibitor project, biochemical, luminescence, set 2 (AID 588599)
T5 sequence (P42574 whole entry): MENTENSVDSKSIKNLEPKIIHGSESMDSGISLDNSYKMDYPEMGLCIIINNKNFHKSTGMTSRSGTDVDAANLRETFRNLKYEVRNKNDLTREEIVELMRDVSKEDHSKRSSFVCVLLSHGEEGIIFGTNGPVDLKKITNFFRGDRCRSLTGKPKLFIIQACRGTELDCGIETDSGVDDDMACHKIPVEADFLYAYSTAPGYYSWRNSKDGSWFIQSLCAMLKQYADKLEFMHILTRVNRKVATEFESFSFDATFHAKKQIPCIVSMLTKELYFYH

[10] = target: T6, Sentrin-specific protease 8 (Homo sapiens, UniProt Q96LD8); experiment: SENP8 protease inhibitors, SAR follow-up, biochemical, luminescence, set 2 (AID 588601)
T6 sequence (Q96LD8 whole entry): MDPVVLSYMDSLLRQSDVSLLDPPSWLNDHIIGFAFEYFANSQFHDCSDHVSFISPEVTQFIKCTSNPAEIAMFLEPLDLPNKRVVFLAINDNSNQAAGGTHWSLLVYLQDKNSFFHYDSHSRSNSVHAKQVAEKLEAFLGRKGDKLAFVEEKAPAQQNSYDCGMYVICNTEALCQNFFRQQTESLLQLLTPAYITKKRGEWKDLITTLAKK

[11] = target: Melanin-concentrating hormone receptor 1 (Homo sapiens, UniProt Q99705); experiment: Late-stage fluorescence-based counterscreen for antagonists of the G-protein coupled receptor 7 (GPR7): cell-based dose response assay to identify antagonists of the melanin-concentrating hormone receptor 1 (MCHR1) Set 6.
Melanin-concentrating hormone receptor 1, sequence (Q99705 whole entry): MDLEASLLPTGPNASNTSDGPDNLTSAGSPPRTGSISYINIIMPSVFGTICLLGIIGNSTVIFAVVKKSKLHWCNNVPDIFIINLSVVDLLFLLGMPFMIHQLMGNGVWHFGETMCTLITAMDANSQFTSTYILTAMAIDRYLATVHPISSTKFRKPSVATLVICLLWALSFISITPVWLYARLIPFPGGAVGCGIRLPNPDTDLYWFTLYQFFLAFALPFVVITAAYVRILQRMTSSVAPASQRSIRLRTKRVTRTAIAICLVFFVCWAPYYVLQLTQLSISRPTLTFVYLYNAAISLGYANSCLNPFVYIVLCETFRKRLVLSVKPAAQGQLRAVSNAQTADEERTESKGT

[12] = target: T7, Neuropeptides B/W receptor type 1 (Homo sapiens, UniProt P48145); experiment: GPR7 antagonist potency, late-stage follow-up, cell-based, fluorescence, dose response, set 6 (AID 588583)
T7 sequence (P48145 whole entry): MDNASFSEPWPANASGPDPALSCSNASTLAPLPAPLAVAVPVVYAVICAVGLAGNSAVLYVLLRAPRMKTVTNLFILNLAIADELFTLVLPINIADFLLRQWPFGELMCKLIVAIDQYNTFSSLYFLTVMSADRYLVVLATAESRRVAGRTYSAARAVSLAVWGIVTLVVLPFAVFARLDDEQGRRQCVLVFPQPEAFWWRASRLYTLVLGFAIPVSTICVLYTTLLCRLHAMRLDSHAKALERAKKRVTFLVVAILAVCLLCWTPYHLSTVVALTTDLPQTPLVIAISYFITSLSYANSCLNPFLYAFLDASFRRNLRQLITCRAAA

Aurora kinase A = Aurora kinase A (Homo sapiens, UniProt O14965);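 also: value from the Navigating the Kinome kinase panel profiling, panel entry STK6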
Aurora kinase A, sequence (O14965 whole entry): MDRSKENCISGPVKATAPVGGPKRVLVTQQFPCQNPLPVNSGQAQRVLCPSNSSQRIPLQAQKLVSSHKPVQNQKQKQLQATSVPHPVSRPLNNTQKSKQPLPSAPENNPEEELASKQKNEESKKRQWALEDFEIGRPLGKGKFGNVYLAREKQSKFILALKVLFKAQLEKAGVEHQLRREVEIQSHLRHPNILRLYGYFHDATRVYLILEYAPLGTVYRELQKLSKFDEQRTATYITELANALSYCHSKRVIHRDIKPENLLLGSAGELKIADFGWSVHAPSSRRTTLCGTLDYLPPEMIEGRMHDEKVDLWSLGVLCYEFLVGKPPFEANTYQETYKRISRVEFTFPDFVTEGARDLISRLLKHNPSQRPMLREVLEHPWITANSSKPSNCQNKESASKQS

Aurora kinase B = Aurora kinase B (Homo sapiens, UniProt Q96GD4)
Aurora kinase B, sequence (Q96GD4 whole entry): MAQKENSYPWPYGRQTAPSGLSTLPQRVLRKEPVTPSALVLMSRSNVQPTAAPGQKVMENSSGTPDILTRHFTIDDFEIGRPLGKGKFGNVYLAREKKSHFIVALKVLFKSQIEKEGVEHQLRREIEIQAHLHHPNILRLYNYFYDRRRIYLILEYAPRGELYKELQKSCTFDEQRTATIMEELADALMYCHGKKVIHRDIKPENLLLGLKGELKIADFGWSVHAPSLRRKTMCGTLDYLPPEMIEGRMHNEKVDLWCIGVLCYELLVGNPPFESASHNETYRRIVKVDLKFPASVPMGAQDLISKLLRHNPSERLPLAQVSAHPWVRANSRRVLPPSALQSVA

Structure (SMILES): COc1ccc(-c2cc3nc(-c4ccccc4)cc(N4CCC5(CC4)OCCO5)n3n2)cc1
IC50 [1]: > 49.8 µM (inactive) | IC50 (CHO-K1): > 66.2 µM (inactive) | IC50 (Orexin receptor type 2 [2]): 10.8 µM (inactive) | IC50 [3]: 23.6 µM (inactive) | IC50 (Orexin receptor type 2 [4]): > 50 µM (inactive) | IC50 [5]: 5.7 µM (active)

Structure (SMILES): CC1CN(C(=O)C(=O)c2c[nH]c3ccccc23)CC(C)O1 (configuration not stated)
IC50 [8]: > 99 µM (inactive) | IC50 [9]: > 99 µM (inactive) | IC50 (Caspase-3): > 99 µM (inactive) | IC50 [10]: > 99 µM (inactive)

Structure (SMILES): Cc1ccccc1Cn1ncc(Cl)c(C(C#N)c2ccccc2)c1=O (configuration not stated)
IC50 [11]: 0.484 µM (active) | IC50 [12]: 0.484 µM (active)

Now from value to compound, other results behind:

EC50 [6]: > 104 µM (inactive) | IC50 [7]: 1.34 µM (active)
Structure (SMILES): O=C1C(=O)c2c(ccc3ccccc23)-c2ccccc21

IC50 [8]: > 99 µM (inactive) | IC50 [9]: > 99 µM (inactive) | IC50 (Caspase-3): > 99 µM (inactive)
Structure (SMILES): COCc1c(C(=O)Nc2nc3ccc(C)cc3s2)sc2cccc(F)c12
IC50 [10]: > 99 µM (inactive)

IC50 [11]: 0.594 µM (active) | IC50 [12]: 0.594 µM (active)
Structure (SMILES): N#CC(c1ccc(Cl)cc1F)c1c(Cl)cnn(Cc2cccc3ccccc23)c1=O (configuration not stated)

Ki (Aurora kinase A): 0.126 µM (active) | Ki (Aurora kinase B): 0.00794 µM (active)
Structure (SMILES): Cc1oc2ncnc(N)c2c1-c1ccc(NC(=O)Nc2cc(C(F)(F)F)ccc2F)cc1
